One data set deals with T1, C-cell calcium receptor (Rattus norvegicus, UniProt P48442).
T1 construct: Neoplastic C-cells derived from a rat medullary thyroid carcinoma (rMTC 6-23) were obtained from American Type Culture Collection; host or cells: rMTC 6-23 cells
T1 sequence (P48442 20-1079): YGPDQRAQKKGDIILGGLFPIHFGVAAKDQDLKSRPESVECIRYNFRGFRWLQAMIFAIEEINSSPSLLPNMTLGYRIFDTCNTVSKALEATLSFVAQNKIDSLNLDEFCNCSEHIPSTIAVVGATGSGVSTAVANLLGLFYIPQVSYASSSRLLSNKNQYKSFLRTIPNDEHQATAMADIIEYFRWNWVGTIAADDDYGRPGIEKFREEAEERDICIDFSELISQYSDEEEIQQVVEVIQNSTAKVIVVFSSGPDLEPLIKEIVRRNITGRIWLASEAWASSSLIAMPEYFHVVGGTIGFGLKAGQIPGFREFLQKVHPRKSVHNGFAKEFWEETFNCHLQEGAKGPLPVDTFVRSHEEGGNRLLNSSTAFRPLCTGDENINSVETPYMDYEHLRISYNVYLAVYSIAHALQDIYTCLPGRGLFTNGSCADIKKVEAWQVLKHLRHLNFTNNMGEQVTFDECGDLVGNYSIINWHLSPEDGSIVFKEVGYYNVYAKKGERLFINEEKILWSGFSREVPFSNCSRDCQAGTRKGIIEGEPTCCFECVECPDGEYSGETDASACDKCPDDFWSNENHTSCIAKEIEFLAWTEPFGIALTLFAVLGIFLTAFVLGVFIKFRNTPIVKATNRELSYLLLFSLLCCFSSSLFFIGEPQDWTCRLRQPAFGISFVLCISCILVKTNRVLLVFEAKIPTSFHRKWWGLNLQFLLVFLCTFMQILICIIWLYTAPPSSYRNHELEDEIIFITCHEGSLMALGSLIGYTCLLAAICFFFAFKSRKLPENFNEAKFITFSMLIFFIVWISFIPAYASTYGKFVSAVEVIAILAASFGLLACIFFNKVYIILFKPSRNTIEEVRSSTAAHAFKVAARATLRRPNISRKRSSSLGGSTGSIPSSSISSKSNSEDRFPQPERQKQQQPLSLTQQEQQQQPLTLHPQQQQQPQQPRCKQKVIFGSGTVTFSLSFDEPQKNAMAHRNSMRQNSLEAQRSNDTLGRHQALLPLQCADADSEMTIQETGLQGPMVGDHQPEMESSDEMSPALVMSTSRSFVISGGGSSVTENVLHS
Description: cell-based. The conditions noted are these: for EC50: rMTC 6-23 cells. It counts as cell-based.

The nature of data set [1]: hypocalcemic response in thyroidectomized rats. Type of data set: in vivo, rat. The following applies: 3 to 100 mg/kg p.o. The source says:
In subsequent studies, rats received a thyroidectomy (parathyroid glands intact). This surgical procedure effectively removed the C-cells secreting calcitonin and therefore enabled the relative contributions of PTH and calcitonin to the hypocalcemic effect of this compound to be determined. […] The only difference was that the rate of onset of the hypocalcemic response was somewhat delayed in thyroidectomized animals. […] Stimulatory effects of this compound on calcitonin secretion increases the rate of onset, but not the extent, of hypocalcemia.

The nature of another data set: net positive charge. It counts as physicochemical.
The test system of a further data set is bovine parathyroid cells. Put plainly: PTH secretion from bovine parathyroid cells. Type of data set: cell-based.
Data set [2] has as its target T2, parathyroid cell calcium receptor (Homo sapiens, UniProt P41180).
T2 construct: Dissociated parathyroid cells were prepared from a parathyroid adenoma obtained by surgery from a patient with primary hyperparathyroidism; endogenous in cells; host or cells: primary dissociated human parathyroid cells (adenoma or hyperplastic tissue from surgery)
T2 sequence (P41180 20-1078): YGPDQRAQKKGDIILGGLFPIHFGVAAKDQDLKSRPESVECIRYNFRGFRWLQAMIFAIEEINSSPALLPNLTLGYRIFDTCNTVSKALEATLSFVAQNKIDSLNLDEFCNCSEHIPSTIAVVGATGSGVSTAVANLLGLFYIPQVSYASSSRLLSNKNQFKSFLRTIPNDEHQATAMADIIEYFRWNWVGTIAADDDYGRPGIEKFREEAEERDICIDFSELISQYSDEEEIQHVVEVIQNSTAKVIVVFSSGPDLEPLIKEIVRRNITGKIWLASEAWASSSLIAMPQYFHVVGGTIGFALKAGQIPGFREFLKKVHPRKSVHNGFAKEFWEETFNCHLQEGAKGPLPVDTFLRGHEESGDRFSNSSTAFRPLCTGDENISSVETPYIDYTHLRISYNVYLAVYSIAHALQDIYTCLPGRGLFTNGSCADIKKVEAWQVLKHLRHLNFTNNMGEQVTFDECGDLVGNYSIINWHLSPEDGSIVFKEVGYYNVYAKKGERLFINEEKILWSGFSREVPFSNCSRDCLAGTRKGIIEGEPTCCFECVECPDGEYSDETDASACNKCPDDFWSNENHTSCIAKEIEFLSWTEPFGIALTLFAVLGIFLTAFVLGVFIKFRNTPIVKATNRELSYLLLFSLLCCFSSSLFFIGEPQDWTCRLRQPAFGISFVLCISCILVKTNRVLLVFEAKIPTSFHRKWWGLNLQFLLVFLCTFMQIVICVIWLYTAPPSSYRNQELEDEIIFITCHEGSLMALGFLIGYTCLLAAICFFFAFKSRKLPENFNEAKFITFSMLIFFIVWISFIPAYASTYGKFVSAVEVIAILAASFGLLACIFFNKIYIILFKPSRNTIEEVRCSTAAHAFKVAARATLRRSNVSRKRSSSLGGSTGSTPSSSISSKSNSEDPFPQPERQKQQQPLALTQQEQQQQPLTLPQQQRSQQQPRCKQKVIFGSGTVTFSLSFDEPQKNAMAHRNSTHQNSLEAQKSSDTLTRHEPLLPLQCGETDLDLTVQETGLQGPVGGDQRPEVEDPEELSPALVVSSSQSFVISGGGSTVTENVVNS
Put plainly: [Ca^2+]i (fura-2) in human parathyroid cells. It counts as cell-based.
Description: This section describes procedures used to obtain and treat parathyroid cells from calves and humans. […] Human parathyroid glands, were obtained from patients undergoing surgical removal of parathyroid tissue for primary or uremic hyperparathyroidism (uremic HPT), and were treated similarly to bovine tissue.
Dissociated parathyroid cells were prepared from a parathyroid adenoma obtained by surgery from a patient with primary hyperparathyroidism.

The test system of a further data set is human parathyroid cells. Description: PTH secretion from human parathyroid cells. It counts as cell-based. As to the method: PTH secretion was measured by first suspending cells in PCB containing 0.5 mM CaCl2 and 0.1% BSA.
For human cells, a commercially available radioimmunoassay kit (INS-PTH; Nichols Institute, Los Angeles, Calif.) which recognizes intact and N-terminal human PTH was used because GW-1 antibody recognizes human PTH poorly.

Where two headings read alike, the source gives them in different places.

Description for C-cell calcium receptor: To assess the effects of molecular polycations on C-cells, a neoplastic cell line, derived from a rat medullary thyroid carcinoma (rMTC 6-23 cells) was used.
Description for bovine parathyroid cells: In most experiments, cells loaded with fura-2 were also used in studies of PTH secretion.

As for `NCCCNCCCCNCCCNCCCNCCCNC(=O)Cc1c[nH]c2ccccc12` [NPS 019, reference compound], the “transient increase in [Ca^2+]i in C-cells” value at C-cell calcium receptor (10 μM, 0.5 mM [Ca^2+]) is given as “refractory to inhibition by La^3+”. The EC50 at C-cell calcium receptor (Table 6, read-out: EC50 C-CELL) is 5 µM; at C-cell calcium receptor (read-out: EC50 for mobilizing intracellular Ca^2+ in C-cells), 5 µM.

Consider `COc1cccc([C@@H](C)NCCCc2ccccc2Cl)c1` [NPS R-568, (R)-(+)-N-[3-(2-chlorophenyl)propyl]-α-methyl-3-methoxybenzylamine], for which the “hypocalcemic response in thyroidectomized animals” value in data set [1] is listed as “hypocalcemic response equal in magnitude to that produced in sham-operated animals”.

For `NC[C@@H]1O[C@H](O[C@H]2[C@@H](O)[C@H](O[C@@H]3[C@@H](O)[C@H](N)C[C@H](N)[C@H]3O[C@H]3O[C@H](CN)[C@@H](O)[C@H](O)[C@H]3N)O[C@@H]2CO)[C@H](N)[C@@H](O)[C@@H]1O` [Neomycin], the “Net (+) Charge” value in “net positive charge” (Table 1, at physiological pH) is reported as “+6”. Moreover, the “net positive charge at pH 7.3” value in the data set “net positive charge” (pH 7.3) is listed as “+6”. The “inhibition of PTH secretion” value in the data set with bovine parathyroid cells is on record as “inhibited PTH secretion to the same extent as extracellular Ca^2+”; with human parathyroid cells it was “inhibited PTH secretion from human parathyroid cells”. Besides, the “increase in [Ca^2+]i” value in data set [2] (20 μM) is “large increase in [Ca^2+ ]i”. In addition, the “increases in [Ca^2+]i” value in data set [2] (human adenoma cells) was “not only a transient, but additionally a steady-state increase in [Ca^2+ ]i”. Moreover, the EC50 in data set [2] (human parathyroid cells) is 20 µM. At C-cell calcium receptor, the “effect on basal [Ca^2+]i in C-cells” value is “without effect on basal [Ca^2+ ]i”.

Usually EC50 stands for the concentration at which the effect is half-maximal.

Source of the values: patent US5688938A, “Calcium receptor-active molecules” (priority 1995, dated 1997).
